Measurements as given in patent US11992471B2, “Reelin/VEGF-C production/activation promoter and skin external composition using the same” (AMOREPACIFIC CORPORATION, priority 2021, dated 2024).

Key:
Type in all cases: cell-based
[1] = tested on: Human dermal lymphatic endothelial cells (HDLEC); experiment: Cytotoxicity analysis (WST-8 cell viability); conditions: within a concentration range of 200 ppm, cultured 24 hours and 72 hours, FIG. 1
Description: Human dermal lymphatic endothelial cells (HDLEC, PromoCell, Germany) were newly cultured in 96 well dishes for one day and then treated with a compound represented by Chemical Formula E-1 (Biogenics Company) at each concentration of 0 ppm ( ? ) to 200 ppm ( ? ). The cells were cultured for 24 hours and 72 hours, and then measured with respect to absorbance at 450 nm by using a QuantiMax WST-8 Cell viability assay kit to check cell viability, and the results are shown in FIG. 1.

reelin = experiment: Reelin cytokine analysis (human reelin ELISA); conditions: HDLEC, 1 ppm and 10 ppm, 48 hours, compared with cells with no treatment (100%), FIG. 2
Description: (§1) After culturing human dermal lymphatic endothelial cells in 6 well plates for 24 hours, while the cells with no treatment (N.T) were used as a reference (100%), the cells were treated with the compound represented by Chemical Formula E-1 at each concentration of 1 ppm and 10 ppm and cultured for 48 hours and then measured with respect to production and activity of reelin through a reelin cytokine analysis by using human reelin ELISA Kit (Mybiosource, U.S.A.) according to a manual, and the results are shown in FIG. 2.

VEGF-C = VEGF-C cytokine analysis (VEGFC human ELISA); conditions: HDLEC, 1 ppm and 10 ppm, 48 hours, compared with cells with no treatment (100%), FIG. 3
Description: as §1, with “VEGF-C” for “reelin”, “using a VEGFC” for “using”, “human” for “human reelin”, “(ThermoFisher,” for “(Mybiosource,”, “3.” for “2.”

Which “cytotoxicity (cell viability)” value [1] does the source give for `NCCS(=O)(=O)O` [Chemical Formula E-1] here?
The value was “no cytotoxicity”.

And the “production and activity of reelin” value (reelin)?
Its value is “further improve production and activity of reelin”.

And the “production and activity of VEGF-C” value (VEGF-C)?
Its value is “further improve production and activity of VEGF-C”.
